Data set [1] relates to NF-κB. The experiment in a line: NF-κB DNA binding activity of p65+/+ MEF nuclear extract after IR. As to conditions: p65+/+ MEFs.
Data set [2] concerns MDA-MB-231 breast cancer cells. The experiment in a line: Cytotoxicity and radio-sensitization in MDA-MB-231 breast cancer cells. Type of data set: cell-based.
Data set [3] deals with p65 (RelA) (Homo sapiens, UniProt Q04206). Kind of data set: TransAM NF-κB Family DNA Binding ELISA, p65. As to conditions: for IC50: p65 binding IC50 (uM), binding to NF-κB sites.
The subject of data set [4] is mouse embryonic fibroblasts (MEFs).
Data set [5] deals with NF-κB. The experiment in a line: NF-κB-dependent luciferase expression after IR in p65+/+ MEFs. The note with it: 10 Gy IR.
Data set [6] relates to collagen-induced arthritis. The experiment in a line: Mouse model of collagen-induced rheumatoid arthritis (CIA).
Data set [7] concerns the target T1, c-Rel (Homo sapiens, UniProt Q04864).
T1 sequence (Q04864 2-619 limits assumed): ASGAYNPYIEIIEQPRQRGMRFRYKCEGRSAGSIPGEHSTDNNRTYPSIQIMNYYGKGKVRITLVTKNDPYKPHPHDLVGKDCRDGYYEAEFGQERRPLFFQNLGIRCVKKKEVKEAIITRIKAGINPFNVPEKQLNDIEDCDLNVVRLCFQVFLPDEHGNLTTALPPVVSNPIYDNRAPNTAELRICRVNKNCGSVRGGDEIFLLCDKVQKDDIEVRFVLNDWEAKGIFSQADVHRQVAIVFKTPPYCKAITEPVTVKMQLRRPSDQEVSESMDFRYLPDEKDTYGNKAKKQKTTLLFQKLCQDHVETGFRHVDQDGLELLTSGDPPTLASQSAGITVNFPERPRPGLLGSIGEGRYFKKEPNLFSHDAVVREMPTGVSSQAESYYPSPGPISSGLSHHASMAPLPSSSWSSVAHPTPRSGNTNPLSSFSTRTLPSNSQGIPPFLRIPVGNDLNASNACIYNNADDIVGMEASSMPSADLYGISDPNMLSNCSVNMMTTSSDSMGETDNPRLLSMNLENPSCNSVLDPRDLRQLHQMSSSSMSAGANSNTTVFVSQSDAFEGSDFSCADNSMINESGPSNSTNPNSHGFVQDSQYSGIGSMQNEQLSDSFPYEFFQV
The experiment in a line: TransAM NF-κB Family DNA Binding ELISA, c-Rel. The note with it: c-Rel binding IC50 (uM), cells without % sign. (ELISA stands for enzyme-linked immunosorbent assay.)

Data set [8] relates to human RPMI8226 multiple myeloma. Kind of data set: RPMI8226 multiple myeloma xenograft in mice. Type of data set: in vivo. On the procedure:
Neither PS-341 (1 mg/kg iv days 1, 4/week×4 weeks) nor the compound of Example 2 (15 mg/kg ip QD×21) treatment achieved statistical significant tumor growth inhibition in this study as compared to vehicle treatment (P>0.10).
Several compounds have been assessed for efficacy studies in rodent disease models. We first sought to obtain in vivo efficacy of the compounds in multiple myeloma which has high incidence of constitutive activation of both the canonical and non-canonical pathways.

The test system of data set [9] is IL-6 secretion from MDA-MB-231 cells. Kind of data set: IL-6 secretion from MDA-MB-231 cells. Type of data set: cell-based. On the procedure: (§1) Specifically, A and B show the effects of the compound of Example 1 on IL-6 and IL-8 secretion from MDA-MB-231 cells stimulated by 20 ng/mL TNF-α. The cells were treated with the indicated concentrations of the compound of Example 1 for 2 hours, and then TNF-α was added and incubation continued for 4 hours.

For data set [10], the system named is COX-2 expression. The experiment in a line: LPS-induced COX-2 expression in RAW264.7 cells. Type of data set: cell-based, mouse. As to conditions: pretreatment, at 6 to 12 h. The text has this:
LPS stimulation induces the expression of COX-2 the enzyme responsible for prostaglandin E2.

In data set [11] the test system is human peripheral blood mononuclear cells (hPBMCs). Kind of data set: Cytotoxicity to hPBMCs (CellTiter-Glo). The data set is classed as cell-based. On the procedure: Human peripheral blood mononuclear cells (hPBMCs) were treated with example 1 or DHMEQ and the percentage of viable cells was assessed 24 hours post drug treatment. The graph represents the mean±the standard deviation of three replicate experiments.
The cytotoxicity profile of the compound of Example 1. The cytotoxicity of the compound of Example 1 was determined for human peripheral blood mononuclear cells (hPBMCs). As with the activity assay, the hPBMCs were treated with 0, 0.2, 1, 10, 20 and 40 μM of the compound of Example 1 for 2 hours, and then induced with 20 ng/ml TNF-α for 48 hours. The number of viable cells was determined using CellTiter-Glo luminescent cell viability assay (Promega (cat #G7573)). […] The selectivity index (the ratio of cytotoxicity CC50 to inhibitory IC50) is assigned to the compound of Example 1.
(In general: In ATP-based viability assays light output follows the ATP content of the culture.)

The test system of data set [12] is soluble IL-2Rα. Kind of data set: Soluble IL-2Rα expression in PHA-P activated hPBMCs. The data set is classed as cell-based, human. As to conditions: 10 μM, three days. On the procedure:
The graph is the mean of 2 independent experiments.
Soluble IL-2Rα is transcriptionally regulated by NF-κB. […] Human PBMCs were treated with 0, 0.2, 1, 10, 20 and 40 μM of the compound of Example 1 concurrent with PHA-P activation. The cells were cultured for an additional three days and media was harvested for marker assessment.

The subject of data set [13] is IL-8 secretion from MDA-MB-231 cells. The experiment in a line: IL-8 secretion from MDA-MB-231 cells. The data set is classed as cell-based. On the procedure: as §1
The mark [14] stands for this setting: 20 μM, TNF-α 20 ng/mL, MDA-MB-231.

Usually IC50 stands for the midpoint of a concentration-inhibition curve. A higher IC50 goes with lower potency.

Entries after “also recorded” stand apart in the source; their conditions may differ.

p65 (RelA), sequence (Q04206 whole entry): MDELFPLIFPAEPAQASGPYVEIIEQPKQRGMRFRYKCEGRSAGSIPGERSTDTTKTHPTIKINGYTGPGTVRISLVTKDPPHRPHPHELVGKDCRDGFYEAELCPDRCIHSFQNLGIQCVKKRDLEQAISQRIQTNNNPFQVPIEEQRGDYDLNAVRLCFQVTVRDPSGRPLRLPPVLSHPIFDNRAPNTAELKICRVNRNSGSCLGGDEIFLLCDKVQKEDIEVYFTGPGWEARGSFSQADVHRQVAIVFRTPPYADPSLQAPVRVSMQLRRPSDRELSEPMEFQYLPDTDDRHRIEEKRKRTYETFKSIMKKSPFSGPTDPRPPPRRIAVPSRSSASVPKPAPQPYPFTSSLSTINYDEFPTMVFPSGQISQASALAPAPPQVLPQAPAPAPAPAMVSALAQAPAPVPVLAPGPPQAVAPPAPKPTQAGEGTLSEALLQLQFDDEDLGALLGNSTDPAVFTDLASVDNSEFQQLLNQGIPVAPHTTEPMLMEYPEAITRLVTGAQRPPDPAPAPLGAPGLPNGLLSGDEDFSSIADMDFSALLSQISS

Turning to `O=C(NC1=CC(=O)C2OC2C1O)c1cc2ccccc2nc1O` (racemic) [Example 2, (±)-2-hydroxy-N-(2-hydroxy-5-oxo-7-oxabicyclo[4.1.0]hept-3-en-3-yl)quinoline-3-carboxamide], the “nuclear extract NF-κB DNA binding activities after IR” value in data set [1] is given as “significantly decreased”. In addition, the “enhancement of radiation effect” value in data set [2] (0.2 μM, MDA-MB-231) is 1.5 fold. In addition, the “LD50 of IR + compound” value came to 1.66 Gy in data set [2] (0.2 μM, MDA-MB-231, IR alone 2.55 Gy) and 1.5 Gy in data set [4] (p65+/+ MEFs, 1.4 μM, IR alone 2.3 Gy). For the same compound, in data set [2] (MDA-MB-231 cells), the “LD50, single agent cytotoxic effect” value came to 0.4 µM. Also, the “inhibition of p65 (RelA) binding to DNA, comparison” value in data set [3] (FIG. 7, canonical pathway) was “more potently than DHMEQ and parthenolide”. Moreover, the figures for the IC50 in [3] and in data set [7] were 1.4 µM and 2.1 µM, respectively. For the same compound, the “cytotoxicity to MEFs” value in [4] (1.4 μM) is “non-cytotoxic”. Also, the “radio-sensitivity of PARP-1+/+ MEFs to IR” value in data set [4] (1.4 μM) is “increased radio-sensitivities”. For the same compound, the “radio-sensitization of p65−/− MEFs” value in data set [4] (p65−/− MEFs) was “no further effect”. In [5], the “NF-κB-dependent luciferase expression after IR” value was “reduced luciferase gene transcription significantly; also recorded: significantly reduced luciferase expression”. Also, the “anti-inflammation effects vs vehicle treated group” value in data set [6] (Example 2 15 mg/kg s.c. qd 21-35, etanercept 50 ug/mouse ip qd 21-35, P<0.05) is given as “statistal significant anti-inflammation effects”. Further, the “hind paw erythema and swelling (arthritis index score)” value in [6] (daily d21-d35) is listed as “significantly reduced”. In addition, in data set [6] (day 35), the “histological evaluation of joints” value is reported as “significant reduction of inflammation”. Further, the myeloperoxidase activities result in data set [6] (mouse, in vivo) is listed as “concomitant reduction”. The “tolerability of efficacious doses in mice” value in data set [6] (mouse, in vivo) is given as “well tolerated”. Further, the “RPMI8226 tumor growth reduction” value in data set [8] (Example 2 15 mg/kg ip QD×21, xenograft mice, 15 mg/kg) is reported as “same level of tumor growth reduction as PS-341; also recorded: reduced RPMI8226 tumor growth”. In data set [8] (mouse, in vivo), the “tolerability in xenograft model” value is listed as “better tolerated than PS-341”.

With `O=C(NC1=CC(=O)C2OC2C1O)c1cccnc1O` (racemic) [Example 1, (±)-2-hydroxy-N-(2-hydroxy-5-oxo-7-oxabicyclo[4.1.0]hept-3-en-3-yl)nicotinamide], in [9] (setting [14]), the “IL-6 secretion, TNF-α stimulated” value is “completely inhibited”. The “inhibition of constitutive IL-6 secretion” value in data set [9] (MDA-MB-231, unstimulated) is on record as “dose-dependent manner”. In [10], the “LPS-induced COX-2 expression” value is “strong inhibition”. Also, the IC50 in data set [3] worked out at 2.2 µM; in data set [7], 4.6 µM. For the same compound, the “selectivity (cytotoxicity CC50 to inhibitory IC50) compared to DHMEQ” value in [11] is given as “greater selectivity”. The “cytotoxicity to hPBMCs” value in [11] (up to 40 μM tested) is recorded as “little detectable toxicity; also recorded: little cytotoxic effect”. In addition, in data set [12], the “effect on sIL-2Rα” value was “statistically significant affect”. Further, in data set [13] (setting [14]), the “IL-8 secretion, TNF-α stimulated” value is given as “completely inhibited”. For the same compound, the “inhibition of constitutive IL-8 secretion” value in [13] (MDA-MB-231, unstimulated) was “dose-dependent manner”.

Values taken from patent US8629164B2, “Inhibitors of NF-κB” (Profectus Biosciences, Inc., priority 2009, dated 2014).
